A word on the IC50: it is the concentration at which inhibition is half-maximal.

In the assay the target is T1, 5HTR2B (Homo sapiens, UniProt P41595).
T1 construct: host or cells: human Maverick/293 cells
T1 sequence (P41595 whole entry): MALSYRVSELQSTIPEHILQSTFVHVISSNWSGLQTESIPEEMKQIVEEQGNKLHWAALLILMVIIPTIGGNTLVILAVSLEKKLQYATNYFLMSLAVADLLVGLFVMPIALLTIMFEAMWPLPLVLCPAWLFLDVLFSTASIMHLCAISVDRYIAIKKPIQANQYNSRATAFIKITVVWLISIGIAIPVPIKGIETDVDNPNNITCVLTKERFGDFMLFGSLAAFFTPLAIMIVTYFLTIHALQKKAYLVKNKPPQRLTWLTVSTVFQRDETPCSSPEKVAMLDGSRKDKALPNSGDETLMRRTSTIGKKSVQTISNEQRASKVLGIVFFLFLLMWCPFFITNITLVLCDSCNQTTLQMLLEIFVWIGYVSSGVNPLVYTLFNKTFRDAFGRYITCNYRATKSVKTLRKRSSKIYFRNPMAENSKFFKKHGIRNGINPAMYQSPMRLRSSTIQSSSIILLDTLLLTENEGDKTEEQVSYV
Nature of the assay: 5HTR2B antagonist activity, calcium mobilization assay in human Maverick/293 cells (serotonin as agonist). It counts as cell-based. Particulars: intracellular calcium, emission 525 nm, read-out: Ca assay IC50. Put shortly:
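Calcium mobilization read over 80 s at ex 485/em 525 nm after serotonin addition. Before that, 2 h serum-free starvation, 50 min dye loading at 37 °C, and 15-30 min antagonist exposure. IC50 from sigmoidal fit of peak % inhibition.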
On the technique in general: A change in cytosolic calcium serves as a functional read-out for many receptors and channels.
Take `COc1c(F)cc(S(=O)(=O)N[C@H]2CCOC2)cc1C(=O)Nc1ccc(F)c(C)c1` [Compound 200, (S)-3-fluoro-N-(4-fluoro-3-methylphenyl)-2-methoxy-5-(N-(tetrahydrofuran-3-yl)sulfamoyl)benzamide]: the IC50 was 3.3 nM.
The same measure for `COc1cc(F)c(S(=O)(=O)N[C@H]2CCOC2)cc1C(=O)Nc1ccc(F)c(C)c1` [Compound 201, (S)-4-fluoro-N-(4-fluoro-3-methylphenyl)-2-methoxy-5-(N-(tetrahydrofuran-3-yl)sulfamoyl)benzamide]: 8.6 nM; for `COc1ccc(S(=O)(=O)N[C@H]2CCOC2)cc1NC(=O)c1ccc(F)c(C)c1` [Compound 203, (S)-4-Fluoro-N-(2-methoxy-5-(N-(tetrahydrofuran-3-yl)sulfamoyl)phenyl)-3-methylbenzamide]: 13 nM.

The values are drawn from US10654837B2, “Sulphamoylaryl derivatives and use thereof as medicaments for the treatment of liver fibrosis” (Janssen Pharmaceutica NV, priority 2017, dated 2020).
